From PMC4319826, “Potent Natural Soluble Epoxide Hydrolase Inhibitors from Pentadiplandra brazzeana Baillon: Synthesis, Quantification, and Measurement of Biological Activities In Vitro and In Vivo” (PLoS ONE, 2015)
Converted amounts (≈) assume the structure as drawn. “Also recorded” adds a separate entry of the source. Where two headings read alike, the source gives them in different places.

Key:
sEH = settings: cited from earlier work
[1] = system: carrageenan induced inflammatory pain; design: method as in Rose et al., (2010); settings: rat, ref Rose et al., (2010), cited from earlier work
human sEH = settings: cited from earlier work
recombinant rat sEH = biological target: T1, recombinant rat sEH (Rattus norvegicus, UniProt P80299); test: sEH inhibition by fluorescent assay (CMNPC assay), rat; assay type: biochemical; settings: recombinant rat sEH 0.96 nM, [S] = 5 μM, mean ± SD of three measurements
T1 construct: made in house; host or cells: insect High Five cells, recombinant baculovirus
T1 sequence (P80299 1-554): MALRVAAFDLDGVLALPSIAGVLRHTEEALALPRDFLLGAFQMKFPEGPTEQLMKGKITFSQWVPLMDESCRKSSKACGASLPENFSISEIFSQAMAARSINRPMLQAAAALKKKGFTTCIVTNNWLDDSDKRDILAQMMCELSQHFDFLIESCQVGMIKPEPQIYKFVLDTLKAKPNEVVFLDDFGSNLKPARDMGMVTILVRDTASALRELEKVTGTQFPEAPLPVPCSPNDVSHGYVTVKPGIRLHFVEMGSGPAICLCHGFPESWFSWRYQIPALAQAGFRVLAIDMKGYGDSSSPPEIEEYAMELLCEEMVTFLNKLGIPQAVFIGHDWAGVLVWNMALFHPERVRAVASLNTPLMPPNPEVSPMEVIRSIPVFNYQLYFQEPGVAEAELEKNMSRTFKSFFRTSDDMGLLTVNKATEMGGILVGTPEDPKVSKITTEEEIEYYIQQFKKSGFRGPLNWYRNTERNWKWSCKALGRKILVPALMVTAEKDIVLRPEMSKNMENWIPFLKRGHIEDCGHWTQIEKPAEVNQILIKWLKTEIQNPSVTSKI
Procedure: (§1) Recombinant human and recombinant rat sEH were produced in insect High Five cells using recombinant baculovirus expression vectors, and purified by affinity chromatography as reported previously. Each enzyme appeared as a single band (0.3 μg loading) with an estimated purity of more than 95% by Coomassie Brilliant Blue staining following SDS-PAGE separation (S1 Fig.). The final recombinant sEH preparations had no esterase or glutathione S-transferase activity which interferes with the CMNPC assay as described below.
(§2) IC50 values were determined as described previously using cyano (2-methoxynaphthalen-6-yl) methyl trans-(3-phenyl-oxyran-2-yl) methyl carbonate (CMNPC) as a fluorescent substrate. Recombinant human or recombinant rat sEH (0.96 nM) was incubated with crude root extract or inhibitors for 5 min in 25 mM bis-Tris/HCl buffer (pH 7.0) containing 0.1 mg/mL of BSA at 30°C prior to substrate introduction ([S] = 5 μM). Activity was measured by determining the appearance of the 6-methoxy-2-naphthaldehyde with an excitation wavelength of 330 nm and an emission wavelength of 465 nm for 10 min.

recombinant human sEH [2] = biological target: T2, recombinant human sEH (Homo sapiens, UniProt P34913); test: sEH inhibition by fluorescent assay (CMNPC assay), human; assay type: biochemical; settings: for IC50: recombinant human sEH 0.96 nM, [S] = 5 μM, mean ± SD of three measurements
T2 construct: made in house; host or cells: insect High Five cells, recombinant baculovirus
T2 sequence (P34913 1-555): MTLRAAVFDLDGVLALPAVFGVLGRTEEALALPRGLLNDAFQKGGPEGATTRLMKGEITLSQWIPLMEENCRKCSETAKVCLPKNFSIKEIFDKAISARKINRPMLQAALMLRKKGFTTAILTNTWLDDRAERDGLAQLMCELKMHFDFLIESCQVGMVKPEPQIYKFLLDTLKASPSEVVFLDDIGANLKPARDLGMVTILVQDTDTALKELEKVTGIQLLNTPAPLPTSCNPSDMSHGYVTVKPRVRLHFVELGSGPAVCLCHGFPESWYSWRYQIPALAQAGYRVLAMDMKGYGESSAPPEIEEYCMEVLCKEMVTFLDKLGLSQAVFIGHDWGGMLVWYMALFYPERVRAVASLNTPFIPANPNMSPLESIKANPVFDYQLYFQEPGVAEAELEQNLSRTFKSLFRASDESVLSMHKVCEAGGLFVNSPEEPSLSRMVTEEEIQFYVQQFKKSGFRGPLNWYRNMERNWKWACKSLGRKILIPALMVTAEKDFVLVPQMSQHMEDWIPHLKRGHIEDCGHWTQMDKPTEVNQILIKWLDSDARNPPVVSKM
Procedure: as §1, §2
The inhibitory potency on human sEH was measured using the CMNPC assay as described in the Materials and Methods. Firstly, the inhibition percentage by each fraction (100 times dilution) was measured (Figure S5&S7). Then the inhibitory potency was measured for the fractions showing higher than 50% inhibition and the IC50 was determined. The potency of each of the fractions is presented as a relative potency to the calculated IC50 of the extract based on the concentration of MMU (Relative potency unit=dilution factor at IC50 of each of fraction/dilution factor at calculated IC50 of the extract based on MMU). […] Data in Table S1&S2 show the relative potency of each fraction and the percentage of recovered potency.

recombinant human sEH [3] = biological target: T2, recombinant human sEH; test: sEH inhibition by radioactivity-based assay (t-DPPO assay), human; assay type: biochemical; settings: for IC50: t-DPPO 50 μM, mean ± SD of three measurements
Procedure: as §1
IC50 values were determined as described previously with slight modifications, using racemic [^3H] trans-diphenylpropene oxide (t-DPPO). Purified recombinant human sEH was diluted in 100 mM sodium phosphate buffer (pH 7.4) containing 0.1 mg/ml BSA, and was incubated in triplicate with inhibitors for 5 min at 30°C prior to the introduction of the radiolabeled substrate (t-DPPO: 50 μM; ∼10,000 cpm/assay). The mixture was incubated at 30°C for 10 min and the reaction was quenched by the addition of 60 μl of methanol. The remaining substrate was extracted by vigorous mixing with 200 μl of isooctane. The radioactivity of the aqueous phase was measured using a liquid scintillation counter (Perkin Elmer Tri-Carb 2810TR, Shelton, CT). Epoxide hydrolase activity was determined as a percentage of the radioactivity corresponding to the diol in the aqueous phase relative to the control.

recombinant human sEH [4] = biological target: T2, recombinant human sEH; test: Enzyme kinetics (Dixon method, t-DPPO substrate), dissociation constant; assay type: biochemical
Procedure: Dissociation constants were determined following the method described by Dixon for competitive tight binding inhibitors, using t-DPPO as a substrate. Inhibitor MMU at concentrations between 0 and 1000 nM was incubated in triplicate for 5 min in 100 mM sodium phosphate buffer (pH 7.4) at 30°C with 100 μl of the enzyme (2 nM of recombinant human sEH). Substrate (4.0 ≤ [S] final ≤ 30 μM) was then added. Velocity was measured as described previously. For each substrate concentration, the plots of the velocity as a function of the inhibitor concentration allow the determination of an apparent inhibition constant (Kiapp). The plot of the Kiapp values as a function of the substrate concentration allows the determination of Ki when [S] = 0. Kiapp was measured in at least 3 separate assays. Results are presented as average ± SE.

[5] = system: carrageenan induced inflammatory pain; test: Nociceptive assay, carrageenan-induced inflammatory pain model (von Frey mechanical withdrawal threshold); assay type: in vivo; settings: rat
Procedure: Male Sprague-Dawley rats weighing 235–280 g were obtained from Charles River Laboratories and maintained in the UC Davis animal housing facility with ad libitum water and food on a 12 h/12 h light-dark cycle. Behavioral nociceptive testing was conducted by assessing mechanical withdrawal threshold using an electronic von Frey anesthesiometer apparatus (IITC, Woodland Hills, CA). […] At least three measurements were taken at 1–2 min inter-stimulus intervals. Data were normalized to percentage values using the formula (mechanical withdrawal threshold (g)) ×100/ (mechanical withdrawal threshold (g) of naïve animals). The analgesic effect of MMU was tested using the intraplantar carrageenan elicited local inflammatory pain model. […] Subsequently, the ability of these treatments to reduce the carrageenan-induced inflammatory pain was monitored over the course of 2.5 h.

[6] = Solubility in sodium phosphate buffer; assay type: physicochemical; settings: sodium phosphate buffer 0.1 M pH 7.4, 25°C, mean±SD
Procedure: An excess amount of MMU was added to a vial containing sodium phosphate buffer, 0.1 M pH 7.4 (0.25 mL), and the MMU suspension was equilibrated during 1 h of sonication and 48 h of shaking at 25°C, followed by centrifugation. The amount of MMU in the supernatant was analyzed by LC—MS/MS. The result is presented as mean ± SD of triplicate measurement.

## CC(=O)O[C@H]1CC[C@]2(C)[C@H]3CC=C4[C@@H]5CC(C)(C)CC[C@]5(C)CC[C@@]4(C)[C@]3(C)CC[C@H]2C1(C)C [β-amyrin acetate]
sEH
  IC50: 570 nM

## CN1CC[C@]23c4c5ccc(O)c4O[C@H]2[C@@H](O)C=C[C@H]3[C@H]1C5 [morphine]
[1]; 10 μg/paw intraplantar
  reduction of carrageenan-induced inflammatory pain: significantly reduced carrageenan induced inflammatory pain; also recorded: significantly reduced pain levels

## O=C(Nc1ccc(OC(F)(F)F)cc1)NC1CCN(C(=O)C2CC2)CC1 [TPCU, 1-(1-(Cyclopropanecarbonyl)piperidin-4-yl)-3-(4-(trifluoromethoxy)phenyl) urea]
Human sEH
  IC50: […]
[1]; 10 ng/paw intraplantar
  reduction of carrageenan-induced inflammatory pain: significantly reduced carrageenan induced inflammatory pain; also recorded: significantly reduced pain levels

## COc1ccc(CNC(=O)NCc2ccccc2)cc1 [BMU, 1-Benzyl-3-(4-methoxybenzyl) urea]
Recombinant rat sEH
  IC50: 44 ± 4.2 nM
Recombinant human sEH [2]
  IC50: 400 ± 50 nM
Recombinant human sEH [2]; with both CMNPC and t-DPPO assays
  inhibitory activity lower than that of MMU: about 4 fold
Recombinant human sEH [3]
  IC50: 10200 ± 2600 nM

## O=C(NCc1ccccc1)NCc1ccccc1 [BBU, 1,3-Dibenzylurea]
Recombinant rat sEH
  IC50: 100 ± 6 nM
Recombinant human sEH [2]
  IC50: 1900 ± 300 nM
Recombinant human sEH [3]
  IC50: 48300 ± 7000 nM

## C=CCc1ccc(O)c(-c2ccc(O)c(CC=C)c2)c1 [honokiol, reference compound]
sEH
  IC50: 3400 nM
Recombinant human sEH [3]
  IC50: 20300 ± 1700 nM

## COc1ccc(CNC(=O)NCc2ccc(OC)cc2)cc1 [MMU, 1,3-Bis (4-methoxybenzyl) urea]
Recombinant rat sEH
  IC50: 35 ± 5 nM
Recombinant human sEH [2]
  IC50: 92 ± 14 nM
Recombinant human sEH [4]
  Ki: 54 nM
  potency higher than APAU (Ki based): approximately 2 fold
  potency lower than t-AUCB (Ki based): approximately 40 fold
[5]; 10 μg/paw intraplantar, 4 h after carrageenan, monitored 2.5 h
  reduction of carrageenan-induced inflammatory pain: effectively reduced inflammatory pain; also recorded: significantly reduced carrageenan induced inflammatory pain; also recorded: significantly reduced pain levels; also recorded: showed local analgesic effects
[5]; MMU 10 μg/paw vs morphine 10 μg/paw, Tukey p<0.05
  duration of efficacy compared to morphine: longer duration of efficacy compared to morphine
Recombinant human sEH [3]
  IC50: 2600 ± 400 nM
Recombinant human sEH [3]; t-DPPO assay
  potency relative to honokiol (more potent): about 8 fold
[6]
  solubility at 48 h: 10.6 ± 2.1 µM (≈ 3.18 µg/mL)
